According to US12678480B2, “Polypeptide applied to inhibition of intracellular lipid accumulation and synthesis method thereof” (NATIONAL CHENG KUNG UNIVERSITY, priority 2021, dated 2026):
Ends that are not written are not given here.

Assays:
[1] = test system: human hepatocarcinoma cells (Huh7); assay: fluorescence staining of lipid droplets in hepatocytes treated with the polypeptide; assay type: cell-based; conditions: Huh7, 400 μM oleic acid, peptide 10 μM, 20 μM; FIG. 4
[2] = test system: human hepatocarcinoma cells (Huh7); conditions: Huh7, 400 μM oleic acid, peptide 10 μM, 20 μM; FIGS. 3A-3B

Substance: MEPGGARLRLQRTEGLGGERERQPCGDGNTETHRAPDLVQWYGRKKRRQRRRK-OH [polypeptide]
- generation of intracellular lipid droplets (LD) [1]: can inhibit
- level of total cholesterol (TC) in hepatocytes [2]: can reduce
- level of triglyceride (TG) in hepatocytes [2]: can reduce
